According to article PMC6268108, “Design, Practical Synthesis, and Biological Evaluation of Novel 6-(Pyrazolylmethyl)-4-quinoline-3-carboxylic Acid Derivatives as HIV-1 Integrase Inhibitors” (Molecules, 2012):

Legend:
HIV-1 integrase = molecular target: T1, HIV-1 integrase (Human immunodeficiency virus type 1 group M subtype B, UniProt P04585); experiment: HIV-1 integrase strand transfer (ST) activity assay; assay type: biochemical; conditions: 1 h; read-out: IC50 (inhibition of strand transfer)
T1 construct: pre-incubated with 800 ng integrase at 37.8 °C in the reaction buffer
Experimental: A HIV-1 integrase strand transfer (ST) activity assay was carried out to test the inhibition effectiveness of our compounds as described previously with some minor modifications. Compounds diluted in DMSO were pre-incubated with 800 ng integrase at 37.8 °C in the reaction buffer in the absence of Mn^2+ for 10 min. Subsequently, 1.5 pmol donor DNA and 9 pmol target DNA were added and the reaction was initiated by the addition of 10 mmol/L Mn^2+ into the final reaction volume. The reactions were carried out at 37.8 °C for 1 h and subsequent detection procedure was applied to detect the assay signals.

Cc1nn(Cc2ccc3c(c2)c(=O)c(C(=O)O)cn3CCCS)c(C)c1Cl [Compound 14b, 1-(3-Mercaptopropyl)-6-((4-chloro-3,5-dimethyl-1H-pyrazol-1-yl)methyl)-4-oxo-1,4-dihydro-quinoline-3-carboxylic acid]
inhibition at 100 µg/mL (HIV-1 integrase): < 50%
melting point: 238 to 240 °C

Cc1nn(Cc2ccc3[nH]cc(C(=O)O)c(=O)c3c2)c(C)c1Br [Compound 11c, 6-((4-Bromo-3,5-dimethyl-1H-pyrazol-1-yl)methyl)-4-oxo-1,4-dihydroquinoline-3-carboxylic acid]
inhibition at 100 µg/mL (HIV-1 integrase): < 50%
melting point: 253 to 256 °C

Cc1nn(Cc2ccc3c(c2)c(=O)c(C(=O)O)cn3CC(O)CO)c(C)c1Cl (stereo not drawn) [Compound 12b, 1-(2,3-Dihydroxypropyl)-6-((4-chloro-3,5-dimethyl-1H-pyrazol-1-yl)methyl)-4-oxo-1,4-dihydro-quinoline-3-carboxylic acid]
inhibition at 100 µg/mL (HIV-1 integrase): < 50%
melting point: 278 to 280 °C

Cc1nn(Cc2ccc3c(c2)c(=O)c(C(=O)O)cn3CC(O)CO)c(C)c1Br (stereo not drawn) [Compound 12c, 1-(2,3-Dihydroxypropyl)-6-((4-bromo-3,5-dimethyl-1H-pyrazol-1-yl)methyl)-4-oxo-1,4-dihydroquino-line-3-carboxylic acid]
inhibition at 100 µg/mL (HIV-1 integrase): < 50%
melting point: 267 to 269 °C

Cc1cc(C)n(Cc2ccc3[nH]cc(C(=O)O)c(=O)c3c2)n1 [Compound 11a, 6-((3,5-Dimethyl-1H-pyrazol-1-yl)methyl)-4-oxo-1,4-dihydroquinoline-3-carboxylic acid]
inhibition at 100 µg/mL (HIV-1 integrase): < 50%
melting point: 254 to 256 °C

Cc1nn(Cc2ccc3c(c2)c(=O)c(C(=O)O)cn3Cc2ccc([N+](=O)[O-])cc2)c(C)c1Br [Compound 16c, 1-(4-Nitrobenzyl)-6-((4-bromo-3,5-dimethyl-1H-pyrazol-1-yl)methyl)-4-oxo-1,4dihydroquinoline-3-carboxylic acid]
inhibition at 100 µg/mL (HIV-1 integrase): < 50%
melting point: 266 to 268 °C

Cc1nn(Cc2ccc3c(c2)c(=O)c(C(=O)O)cn3Cc2ccc([N+](=O)[O-])cc2)c(C)c1Cl [Compound 16b, 1-(4-Nitrobenzyl)-6-((4-chloro-3,5-dimethyl-1H-pyrazol-1-yl)methyl)-4-oxo-1,4-dihydroquinoline-3-carboxylic acid]
inhibition at 100 µg/mL (HIV-1 integrase): < 50%
melting point: 282 to 284 °C

Cc1cc(C)n(Cc2ccc3c(c2)c(=O)c(C(=O)O)cn3CC(O)CO)n1 (stereo not drawn) [Compound 12a, 1-(2,3-Dihydroxypropyl)-6-((3,5-dimethyl-1H-pyrazol-1-yl)methyl)-4-oxo-1,4-dihydroquinoline-3-carboxylic acid]
inhibition at 100 µg/mL (HIV-1 integrase): < 50%
melting point: 187 to 189 °C

Cc1cc(C)n(Cc2ccc3c(c2)c(=O)c(C(=O)O)cn3CCCS)n1 [Compound 14a, 1-(3-Mercaptopropyl)-6-((3,5-dimethyl-1H-pyrazol-1-yl)methyl)-4-oxo-1,4-dihydroquinoline-3-carboxylic acid]
inhibition at 100 µg/mL (HIV-1 integrase): < 50%
melting point: 225 to 226 °C

Cc1nn(Cc2ccc3c(c2)c(=O)c(C(=O)O)cn3CCCS)c(C)c1Br [Compound 14c, 6-((4-Bromo-3,5-dimethyl-1H-pyrazol-1-yl)methyl)-1-(3-mercaptopropyl)-4-oxo-1,4-dihydroquinoline-3-carboxylic acid]
inhibition at 100 µg/mL (HIV-1 integrase): < 50%
melting point: 231 to 233 °C

Cc1nn(Cc2ccc3[nH]cc(C(=O)O)c(=O)c3c2)c(C)c1Cl [Compound 11b, 6-((4-Chloro-3,5-dimethyl-1H-pyrazol-1-yl)methyl)-4-oxo-1,4-dihydroquinoline-3-carboxylic acid]
inhibition at 100 µg/mL (HIV-1 integrase): < 50%
melting point: 263 to 265 °C

Cc1nn(Cc2ccc3c(c2)c(=O)c(C(=O)O)cn3Cc2ccc(F)cc2)c(C)c1Cl [Compound 15b, 1-(4-Fluorobenzyl)-6-((4-chloro-3,5-dimethyl-1H-pyrazol-1-yl)methyl)-4-oxo-1,4-dihydro-quinoline-3-carboxylic acid]
inhibition at 100 µg/mL (HIV-1 integrase): < 50%
melting point: 239 to 241 °C

Cc1nn(Cc2ccc3c(c2)c(=O)c(C(=O)O)cn3Cc2ccc(F)cc2)c(C)c1Br [Compound 15c, 1-(4-Fluorobenzyl)-6-((4-bromo-3,5-dimethyl-1H-pyrazol-1-yl)methyl)-4-oxo-1,4-dihydro-quinoline-3-carboxylic acid]
inhibition at 100 µg/mL (HIV-1 integrase): < 50%
melting point: 255 to 257 °C

Cc1cc(C)n(Cc2ccc3c(c2)c(=O)c(C(=O)O)cn3CC(=O)O)n1 [Compound 13a, 1-(Carboxymethyl)-6-((3,5-dimethyl-1H-pyrazol-1-yl)methyl)-4-oxo-1,4-dihydroquinoline-3-carboxylic acid]
inhibition at 100 µg/mL (HIV-1 integrase): < 50%
melting point: > 300 °C

Cc1nn(Cc2ccc3c(c2)c(=O)c(C(=O)O)cn3CC(=O)O)c(C)c1Br [Compound 13c, 1-(Carboxymethyl)-6-((4-bromo-3,5-dimethyl-1H-pyrazol-1-yl)methyl)-4-oxo-1,4-dihydro-quinoline-3-carboxylic acid]
inhibition at 100 µg/mL (HIV-1 integrase): < 50%
melting point: 278 to 280 °C

Cc1nn(Cc2ccc3c(c2)c(=O)c(C(=O)O)cn3CC(=O)O)c(C)c1Cl [Compound 13b, 1-(Carboxymethyl)-6-((4-chloro-3,5-dimethyl-1H-pyrazol-1-yl)methyl)-4-oxo-1,4-dihydroquinoline-3-carboxylic acid]
inhibition at 100 µg/mL (HIV-1 integrase): < 50%
melting point: 292 to 295 °C

Cc1cc(C)n(Cc2ccc3c(c2)c(=O)c(C(=O)O)cn3Cc2ccc([N+](=O)[O-])cc2)n1 [Compound 16a, 1-(4-Nitrobenzyl)-6-((3,5-dimethyl-1H-pyrazol-1-yl)methyl)-4-oxo-1,4-dihydro-quinoline-3-carboxylic acid]
inhibition at 100 µg/mL (HIV-1 integrase): < 50%
melting point: 274 to 276 °C

Cc1cc(C)n(Cc2ccc3c(c2)c(=O)c(C(=O)O)cn3Cc2ccc(F)cc2)n1 [Compound 15a, 1-(4-Fluorobenzyl)-6-((3,5-dimethyl-1H-pyrazol-1-yl)methyl)-4-oxo-1,4-dihydro-quinoline-3-carboxylic acid]
inhibition at 100 µg/mL (HIV-1 integrase): < 50%
melting point: 271 to 273 °C
